In ChEMBL document CHEMBL3872214, “Synthesis and evaluation of in vivo antioxidant, in vitro antibacterial, MRSA and antifungal activity of novel substituted isatin N-(2,3,4,6-tetra-O-acetyl-β-d-glucopyranosyl)thiosemicarbazones” (Eur J Med Chem, 2016):
Values after ≈ are worked out from the molar mass of the structure shown.

Key:
Type in all cases: functional
[1] = tested on: Rattus norvegicus; assay: (§1) Antioxidant activity in CCL4-intoxicated Wistar albino rat assessed as liver cytosolic catalase activity per mg protein at 100 mg/kg, ip administered for 7 consecutive days after DL-alpha-tocopherol acetate treatment followed by CCL4 dosing measured after 24 hrs by H2O2 based assay (reference value: 220.15 +/- 11.43 U)
[2] = tested on: Escherichia coli; assay: Antibacterial activity against Escherichia coli ATCC 25922 after 18 to 20 hrs by two-fold microbroth dilution method
[3] = tested on: Klebsiella aerogenes; assay: Antibacterial activity against Enterobacter aerogenes ATCC 13048 after 18 to 20 hrs by two-fold microbroth dilution method
[4] = tested on: Pseudomonas aeruginosa; assay: Antibacterial activity against Pseudomonas aeruginosa […] after 18 to 20 hrs by two-fold microbroth dilution method
[5] = tested on: Bacillus subtilis; assay: Antibacterial activity against Bacillus subtilis ATCC 11774 after 18 to 20 hrs by two-fold microbroth dilution method
[6] = tested on: Klebsiella pneumoniae; assay: Antibacterial activity against Klebsiella pneumoniae ATCC 4352 after 18 to 20 hrs by two-fold microbroth dilution method
[7] = Antifungal activity against Fusarium oxysporum M42 after 72 hrs by agar dilution method
[8] = tested on: Staphylococcus aureus; assay: Antibacterial activity against methicillin-resistant Staphylococcus aureus 198-3 after 18 to 20 hrs by two-fold microbroth dilution method
[9] = tested on: Staphylococcus aureus; assay: Antibacterial activity against Staphylococcus aureus ATCC 11632 after 18 to 20 hrs by two-fold microbroth dilution method
[10] = tested on: Rattus norvegicus; assay: as §1, with “glutathione peroxidase” for “catalase”, “spectrophotometric analysis” for “assay”, “0.28” for “220.15”, “0.01” for “11.43”
[11] = tested on: Aspergillus niger; assay: Antifungal activity against Aspergillus niger 439 after 72 hrs by agar dilution method; settings: Aspergillus niger, 439, 72 h
[12] = tested on: Staphylococcus aureus; assay: Antibacterial activity against methicillin-resistant Staphylococcus aureus 198-2 after 18 to 20 hrs by two-fold microbroth dilution method
[13] = tested on: Candida albicans; assay: Antifungal activity against Candida albicans ATCC 7754 after 72 hrs by agar dilution method; settings: ATCC 7754, 72 h
[14] = Antifungal activity against Saccharomyces cerevisiae SH20 after 72 hrs by agar dilution method
[15] = tested on: Staphylococcus aureus; assay: Antibacterial activity against methicillin-resistant Staphylococcus aureus 198-1 after 18 to 20 hrs by two-fold microbroth dilution method
[16] = tested on: Rattus norvegicus; assay: as §1, with “superoxide dismutase” for “catalase”, “xanthine” for “H2O2”, “5.27” for “220.15”, “0.22” for “11.43”
[17] = tested on: Staphylococcus epidermidis; assay: Antibacterial activity against Staphylococcus epidermidis ATCC 12228 after 18 to 20 hrs by two-fold microbroth dilution method

Row | Structure (SMILES) | Activity [1] | MIC [2] | MIC [3] | MIC [4] | MIC [5] | MIC [6] | MIC [7] | MIC [8] | MIC [9] | Activity [10] | MIC [11] | MIC [12] | MIC [13] | MIC [14] | MIC [15] | Activity [16] | MIC [17]
1 | CCCN1C(=O)/C(=N/NC(=S)N[C@@H]2O[C@H](COC(C)=O)[C@@H](OC(C)=O)[C@H](OC(C)=O)[C@H]2OC(C)=O)c2ccccc21 | 367.63 U | 12.5 µM (≈ 7.41 µg/mL) | 12.5 µM (≈ 7.41 µg/mL) | 12.5 µM (≈ 7.41 µg/mL) | 100 µM (≈ 59.3 µg/mL) | 12.5 µM (≈ 7.41 µg/mL) | 100 µM (≈ 59.3 µg/mL) | 100 µM (≈ 59.3 µg/mL) | 100 µM (≈ 59.3 µg/mL) | 0.84 U | 50 µM (≈ 29.6 µg/mL) | 100 µM (≈ 59.3 µg/mL) | 400 µM (≈ 237 µg/mL) | 400 µM (≈ 237 µg/mL) | 100 µM (≈ 59.3 µg/mL) | 9.77 U | 100 µM (≈ 59.3 µg/mL)
2 | Oc1ccc(/C=C/c2cc(O)cc(O)c2)cc1 [RESVERATROL] | 282.12 U | – | – | – | – | – | – | – | – | 0.33 U | – | – | – | – | – | 7.31 U | –
3 | CCN1C(=O)/C(=N/NC(=S)N[C@@H]2O[C@H](COC(C)=O)[C@@H](OC(C)=O)[C@H](OC(C)=O)[C@H]2OC(C)=O)c2ccccc21 | 358.47 U | 12.5 µM (≈ 7.23 µg/mL) | 12.5 µM (≈ 7.23 µg/mL) | 12.5 µM (≈ 7.23 µg/mL) | 100 µM (≈ 57.9 µg/mL) | 12.5 µM (≈ 7.23 µg/mL) | 200 µM (≈ 116 µg/mL) | 100 µM (≈ 57.9 µg/mL) | 100 µM (≈ 57.9 µg/mL) | 0.75 U | 25 µM (≈ 14.5 µg/mL) | 100 µM (≈ 57.9 µg/mL) | 400 µM (≈ 231 µg/mL) | 400 µM (≈ 231 µg/mL) | 100 µM (≈ 57.9 µg/mL) | 9.68 U | 100 µM (≈ 57.9 µg/mL)
4 | CN[C@H](CC(C)C)C(=O)N[C@H]1C(=O)N[C@@H](CC(N)=O)C(=O)N[C@H]2C(=O)N[C@H]3C(=O)N[C@H](C(=O)N[C@H](C(=O)O)c4cc(O)cc(O)c4-c4cc3ccc4O)[C@H](O)c3ccc(c(Cl)c3)Oc3cc2cc(c3O[C@@H]2O[C@H](CO)[C@@H](O)[C@H](O)[C@H]2O[C@H]2C[C@](C)(N)[C@H](O)[C@H](C)O2)Oc2ccc(cc2Cl)[C@H]1O [VANCOMYCIN] | – | – | – | – | 0.83 µM (≈ 1.2 µg/mL) | – | – | 1.65 µM (≈ 2.39 µg/mL) | 1.21 µM (≈ 1.75 µg/mL) | – | – | 1.65 µM (≈ 2.39 µg/mL) | – | – | 1.65 µM (≈ 2.39 µg/mL) | – | 2.1 µM (≈ 3.04 µg/mL)
5 | CC(=O)OC[C@H]1O[C@@H](NC(=S)N/N=C2/C(=O)N(Cc3ccccc3)c3ccccc32)[C@H](OC(C)=O)[C@@H](OC(C)=O)[C@@H]1OC(C)=O | 250.63 U | 100 µM (≈ 64.1 µg/mL) | 100 µM (≈ 64.1 µg/mL) | 100 µM (≈ 64.1 µg/mL) | 200 µM (≈ 128 µg/mL) | 100 µM (≈ 64.1 µg/mL) | 100 µM (≈ 64.1 µg/mL) | 200 µM (≈ 128 µg/mL) | 200 µM (≈ 128 µg/mL) | 1.69 U | 100 µM (≈ 64.1 µg/mL) | 200 µM (≈ 128 µg/mL) | 400 µM (≈ 256 µg/mL) | 400 µM (≈ 256 µg/mL) | 200 µM (≈ 128 µg/mL) | 8.6 U | 200 µM (≈ 128 µg/mL)
6 | CC(=O)OC[C@H]1O[C@@H](NC(=S)N/N=C2/C(=O)Nc3ccc(Br)cc32)[C@H](OC(C)=O)[C@@H](OC(C)=O)[C@@H]1OC(C)=O | 394.43 U | 50 µM (≈ 31.5 µg/mL) | 50 µM (≈ 31.5 µg/mL) | 50 µM (≈ 31.5 µg/mL) | 6.25 µM (≈ 3.93 µg/mL) | 50 µM (≈ 31.5 µg/mL) | 12.5 µM (≈ 7.87 µg/mL) | 3.12 µM (≈ 1.96 µg/mL) | 6.25 µM (≈ 3.93 µg/mL) | 0.32 U | 6.25 µM (≈ 3.93 µg/mL) | 1.56 µM (≈ 0.982 µg/mL) | 12.5 µM (≈ 7.87 µg/mL) | 12.5 µM (≈ 7.87 µg/mL) | 1.56 µM (≈ 0.982 µg/mL) | 10.47 U | 6.25 µM (≈ 3.93 µg/mL)
7 | Clc1ccc(COC(Cn2ccnc2)c2ccc(Cl)cc2Cl)c(Cl)c1 (stereo unspecified) [MICONAZOLE] | – | – | – | – | – | – | 3.12 µM (≈ 1.3 µg/mL) | – | – | – | 1.56 µM (≈ 0.649 µg/mL) | – | 3.12 µM (≈ 1.3 µg/mL) | 3.12 µM (≈ 1.3 µg/mL) | – | – | –
8 | O=C(O)c1cn(C2CC2)c2cc(N3CCNCC3)c(F)cc2c1=O [CIPROFLOXACIN] | – | 1.56 µM (≈ 0.517 µg/mL) | 1.56 µM (≈ 0.517 µg/mL) | 1.56 µM (≈ 0.517 µg/mL) | 3.12 µM (≈ 1.03 µg/mL) | 1.56 µM (≈ 0.517 µg/mL) | – | – | 3.12 µM (≈ 1.03 µg/mL) | – | – | – | – | – | – | – | 3.12 µM (≈ 1.03 µg/mL)
9 | COc1cccc(OC)c1C(=O)N[C@@H]1C(=O)N2[C@@H]1SC(C)(C)[C@@H]2C(=O)O [METHICILLIN] | – | – | – | – | – | – | – | > 200 µM | – | – | – | > 200 µM | – | – | > 200 µM | – | –
